Measurements as given in ChEMBL document CHEMBL4482322, “Uses of tryptanthrin and derivative thereof in preparing hldo2 inhibitor” (2017).

Experiments:
[1] = target: T1, Indoleamine 2,3-dioxygenase 2 (Homo sapiens) (UniProt Q6ZQW0); experiment: Inhibition of human IDO2 at 10 uM using L-tryptophan as substrate incubated for 30 min assessed as reduction in conversion of N-formyl kynurenine to kynurenine relative to control
T1 sequence (whole entry): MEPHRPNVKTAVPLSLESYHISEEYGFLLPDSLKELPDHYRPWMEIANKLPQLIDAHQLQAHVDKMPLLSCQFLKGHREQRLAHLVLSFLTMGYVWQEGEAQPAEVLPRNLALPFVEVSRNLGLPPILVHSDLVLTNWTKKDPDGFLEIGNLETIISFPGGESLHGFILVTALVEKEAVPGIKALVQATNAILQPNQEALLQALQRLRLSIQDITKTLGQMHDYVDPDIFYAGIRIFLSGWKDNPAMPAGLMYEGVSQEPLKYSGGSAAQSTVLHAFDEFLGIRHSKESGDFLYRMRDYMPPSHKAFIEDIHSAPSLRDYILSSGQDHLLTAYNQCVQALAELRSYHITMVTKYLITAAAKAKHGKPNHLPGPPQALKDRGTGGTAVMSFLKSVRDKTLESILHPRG

[2] = target: T2, Indoleamine 2,3-dioxygenase 1 (Homo sapiens, UniProt P14902); experiment: Inhibition of IDO1 (unknown origin) using L-tryptophan as substrate incubated for 30 min assessed as reduction in conversion of N-formyl kynurenine to kynurenine by dixon plot analysis
[3] = target: T2, Indoleamine 2,3-dioxygenase 1; experiment: Inhibition of IDO1 in human U87MG cells in presence of L-tryptophan incubated for 24 h; type: cell-based
[4] = target: T3, Indoleamine 2,3-dioxygenase 2 (Homo sapiens, UniProt Q6ZQW0); experiment: Inhibition of human IDO2 using L-tryptophan as substrate assessed as reduction in conversion of N-formyl kynurenine to kynurenine
T3 sequence (Q6ZQW0 whole entry): T1 sequence (whole entry)

T2 sequence (P14902 whole entry): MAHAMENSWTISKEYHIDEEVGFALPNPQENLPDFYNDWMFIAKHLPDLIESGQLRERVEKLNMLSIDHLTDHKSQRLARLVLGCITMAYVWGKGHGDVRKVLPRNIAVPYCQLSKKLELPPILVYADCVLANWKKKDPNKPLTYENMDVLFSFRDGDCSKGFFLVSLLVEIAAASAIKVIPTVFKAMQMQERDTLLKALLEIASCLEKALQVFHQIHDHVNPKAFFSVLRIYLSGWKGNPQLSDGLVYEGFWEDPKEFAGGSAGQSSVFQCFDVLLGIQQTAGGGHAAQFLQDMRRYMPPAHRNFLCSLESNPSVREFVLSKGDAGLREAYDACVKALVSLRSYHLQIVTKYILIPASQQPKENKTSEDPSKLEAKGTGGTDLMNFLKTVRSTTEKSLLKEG

| Compound | inhibition [1] | further results |
| --- | --- | --- |
| Cn1cc(C[C@H](N)C(=O)O)c2ccccc21 | 8% | – |
| O=C1c2cc(F)ccc2-n2c1nc1ccc(F)cc1c2=O | 18 to 47% | – |
| O=C1c2cc(Br)ccc2-n2c1nc1ccccc1c2=O | 18 to 47% | – |
| O=C1c2ccccc2-n2c1nc1ccccc1c2=O | 18 to 47% | – |
| O=C1c2ccccc2-n2c1nc1ccc(F)cc1c2=O | 18 to 47% | Ki [2]: > 3.9 mM; IC50 [3]: > 3.9 mM |
| O=C1c2cc(F)ccc2-n2c1nc1ccccc1c2=O | 18 to 47% | – |
| O=C1c2ccc(Cl)cc2-n2c1nc1ccccc1c2=O | 18 to 47% | – |
| O=C1c2cc([N+](=O)[O-])ccc2-n2c1nc1ccccc1c2=O | 63% | IC50 [4]: 0.00187 mM |
| Cc1ccc2c(c1)C(=O)c1nc3ccccc3c(=O)n1-2 | 18 to 47% | IC50 [3]: > 3.9 mM |
| O=C1c2c(Cl)cccc2-n2c1nc1ccccc1c2=O | 18 to 47% | – |
| Cn1cc(C[C@@H](N)C(=O)O)c2ccccc21 | 8% | – |
